Values after ≈ are worked out from the molar mass of the structure shown. Where two headings read alike, the source gives them in different places. Non-standard residues stand in square brackets, D forms with d. Residues, ends and D or L forms follow the SMILES beside them. *: point of attachment. Orn(α-tetramethylguanidino) = CN(C)C(=N[C@@H](CCCN)C(=O)*)N(C)C; Orn = NCCC[C@H](N)C(=O)O
Key:
[1] = tested on: C. neoformans strains 1841, H99, and KN99α; assay: Broth microdilution assay (MIC); format: cell-based, Cryptococcus neoformans
[2] = tested on: C. neoformans 1841 (serotype D); conditions: for MIC (μmol/L) 1841 24 h: 1841 (serotype D, 24 h, pH 7.5); for MIC (μmol/L) 1841 48 h: 1841 (serotype D, 48 h, pH 7.5)
[3] = tested on: C. neoformans H99 (serotype A); conditions: for MIC (μmol/L) H99 24 h: H99 (serotype A, 24 h); for MIC (μmol/L) H99 48 h: H99 (serotype A, 48 h)
[4] = tested on: C. neoformans KN99α (serotype A, mating type MATα)
[5] = strains 1841, H99, and KN99α, 24 h
[6] = KN99α (serotype A, mating type MATα, 24 h)
[7] = KN99α (serotype A, mating type MATα, 48 h)

Row | Compound | MIC [1] | MIC [1, 5] [µM] | MIC (μmol/L) 1841 24 h [2] [µmol/L] | MIC (μmol/L) 1841 48 h [2] [µmol/L] | MIC (mg/L) 1841 24 h ([2]; broth microdilution, 50% SAB in phosphate buffer, 30°C, read after 24 h, n = 6) [mg/L] | MIC (mg/L) 1841 48 h ([2]; broth microdilution, 50% SAB in phosphate buffer, 30°C, read after 48 h, n = 6) [mg/L] | MIC (μmol/L) H99 24 h [3] [µmol/L] | MIC (μmol/L) H99 48 h [3] [µmol/L] | MIC (mg/L) KN99α 24 h [4, 6] [mg/L] | MIC (μmol/L) KN99α 24 h [4, 6] [µmol/L] | MIC (mg/L) KN99α 48 h [4, 7] [mg/L] | MIC (μmol/L) KN99α 48 h [4, 7] [µmol/L]
1 | CC[C@H](C)[C@H](NC(=O)[C@H](Cc1ccc(O)cc1)NC(=O)[C@@H](NC(=O)[C@@H]1CCCN1C(=O)[C@H](CCCNC(=N)N)NC(=O)[C@H](CC(N)=O)NC(=O)[C@H](CC(N)=O)NC(=O)[C@H](CCCN)N=C(N(C)C)N(C)C)C(C)C)C(=O)N1CCC[C@H]1C(=O)N[C@@H](CCCNC(=N)N)C(=O)N1CCC[C@H]1C(=O)N[C@@H](CCCNC(=N)N)C(=O)N1CCC[C@H]1C(=O)N1CCC[C@H]1C(=O)N[C@@H](Cc1c[nH]cn1)C(=O)N1CCC[C@H]1C(=O)N[C@@H](CCCNC(=N)N)C(=O)N[C@@H](CC(C)C)C(=O)O [Api137] ({Orn(α-tetramethylguanidino)}-NNRPVYIPRPRPPHPRL-OH; N-terminus and C-terminus assumed) | 32 to 64 µg/mL | 14 to 28 | 14 (≈ 32.1 µg/mL) | 28 (≈ 64.2 µg/mL) | 32 (≈ 14 µM) | 64 (≈ 27.9 µM) | 14 (≈ 32.1 µg/mL) | 28 (≈ 64.2 µg/mL) | 32 to 64 | 14 to 28 | 64 to 128 | 28 to 56
2 | CC[C@H](C)[C@H](NC(=O)[C@H](CCCN)NC(=O)[C@@H](NC(=O)[C@@H](N)CCCN)[C@@H](C)CC)C(=O)N[C@@H](CCCN)C(=O)N[C@@H](CCCNC(=N)N)C(=O)N1CCC[C@H]1C(=O)N[C@H](C(=O)N[C@@H](Cc1ccc(O)cc1)C(=O)N[C@@H](CCCN)C(=O)N1CCC[C@H]1C(=O)N[C@@H](CCCNC(=N)N)C(=O)N1CCC[C@H]1C(=O)N[C@@H](CCCNC(=N)N)C(=O)N1CCC[C@H]1C(=O)N1CCC[C@H]1C(=O)N[C@@H](Cc1c[nH]cn1)C(=O)N1CCC[C@H]1C(=O)N[C@@H](CCCNC(=N)N)C(=O)N[C@@H](CCCNC(=N)N)C(=O)O)C(C)C [Api822] (H-[Orn]I[Orn]I[Orn]RPVY[Orn]PRPRPPHPRR-OH) | – | 1.6 to 6.7 | 3.2 (≈ 7.88 µg/mL) | 3.2 (≈ 7.88 µg/mL) | – | – | 3.2 (≈ 7.88 µg/mL) | 3.2 (≈ 7.88 µg/mL) | – | 3.2 (≈ 7.88 µg/mL) | – | 3.2 (≈ 7.88 µg/mL)
3 | CC[C@H](C)[C@H](NC(=O)[C@H](Cc1ccc(O)cc1)NC(=O)[C@@H](NC(=O)[C@@H]1CCCN1C(=O)[C@H](CCCNC(=N)N)NC(=O)[C@H](CC(N)=O)NC(=O)[C@H](CC(N)=O)NC(=O)CN)C(C)C)C(=O)N1CCC[C@H]1C(=O)N[C@@H](CCC(N)=O)C(=O)N1CCC[C@H]1C(=O)N[C@@H](CCCNC(=N)N)C(=O)N1CCC[C@H]1C(=O)N1CCC[C@H]1C(=O)N[C@@H](Cc1c[nH]cn1)C(=O)N1CCC[C@H]1C(=O)N[C@@H](CCCNC(=N)N)C(=O)N[C@@H](CC(C)C)C(=O)O [Apidaecin 1b, reference compound] (H-GNNRPVYIPQPRPPHPRL-OH) | – | > 61 | > 61 | > 61 | – | – | > 61 | > 61 | – | > 61 | – | > 61
4 | CC[C@H](C)[C@H](NC(=O)[C@H](CCCCN)NC(=O)[C@H](CCC(=O)O)NC(=O)CNC(=O)CNC(=O)[C@H](CCCCN)NC(=O)[C@H](CCCNC(=N)N)NC(=O)[C@H](CC(C)C)NC(=O)[C@H](CC(C)C)NC(=O)CN)C(=O)NCC(=O)N[C@@H](CCC(=O)O)C(=O)N[C@@H](CCCCN)C(=O)N[C@@H](CC(C)C)C(=O)N[C@@H](CCCCN)C(=O)N[C@@H](CCCCN)C(=O)N[C@H](C(=O)NCC(=O)N[C@@H](CCC(N)=O)C(=O)N[C@@H](CCCCN)C(=O)N[C@H](C(=O)N[C@@H](CCCCN)C(=O)N[C@@H](CC(N)=O)C(=O)N[C@@H](Cc1ccccc1)C(=O)N[C@@H](Cc1ccccc1)C(=O)N[C@@H](CCC(N)=O)C(=O)N[C@@H](CCCCN)C(=O)N[C@@H](CC(C)C)C(=O)N[C@H](C(=O)N1CCC[C@H]1C(=O)N[C@@H](CCC(N)=O)C(=O)N1CCC[C@H]1C(=O)N[C@@H](CCC(=O)O)C(=O)N[C@@H](CCC(N)=O)C(=O)O)C(C)C)[C@@H](C)CC)[C@@H](C)CC [CRAMP, reference compound] (H-GLLRKGGEKIGEKLKKIGQKIKNFFQKLVPQPEQ-OH) | 2.1 µM | – | 2.1 (≈ 8.15 µg/mL) | 2.1 (≈ 8.15 µg/mL) | – | – | 2.1 (≈ 8.15 µg/mL) | 2.1 (≈ 8.15 µg/mL) | – | 2.1 (≈ 8.15 µg/mL) | – | 2.1 (≈ 8.15 µg/mL)
5 | CC[C@H](C)[C@H](NC(=O)[C@@H]1CCCN1C(=O)[C@H](CCCNC(=N)N)NC(=O)[C@@H]1CCCN1C(=O)[C@H](Cc1c[nH]cn1)NC(=O)[C@H](CO)NC(=O)[C@@H](NC(=O)[C@@H]1CCCN1C(=O)[C@H](CCCNC(=N)N)NC(=O)[C@@H]1CCCN1C(=O)[C@H](CO)NC(=O)[C@H](Cc1ccc(O)cc1)NC(=O)[C@@H]1CCCN1C(=O)[C@H](CCCNC(=N)N)NC(=O)[C@@H]1CCCN1C(=O)[C@H](CCCCN)NC(=O)CN)[C@@H](C)O)C(=O)N[C@@H](CCCNC(=N)N)C(=O)N[C@H](C(=O)O)C(C)C [Drosocin, reference compound] (H-GKPRPYSPRPTSHPRPIRV-OH) | – | > 58 | 29 (≈ 63.8 µg/mL) | 58 (≈ 128 µg/mL) | – | – | 58 (≈ 128 µg/mL) | >58 | – | >58 | – | >58

— paper PMC10800876, “Evaluation of proline-rich antimicrobial peptides as potential lead structures for novel antimycotics against Cryptococcus neoformans” (Frontiers in Microbiology, 2024)
